Experimental data reported in US20190227066A1, “COMPOSITIONS AND METHODS FOR DETECTING CANCER CELLS IN A TISSUE SAMPLE” (ISI Life Sciences, Inc., priority 2016, published 2019).

Test system: SDOV3 cells (an ovarian cancer cell line)
Experiment: Detection of ovarian cancer cells: uptake and intracellular deacylation, imaged by fluorescence microscopy
Format: cell-based
Conditions: 50 micromolar, folate-free medium (no FBS), washed with HBSS, 20× immersion objective
Experimental: Compound 24 and comparative compound A were evaluated for their ability to be absorbed by cancer cells and then, in the case of compound 24, deacylated by intracellular esterases so as to regenerate a fluorescent structure. Specifically, approximately 500,000 SDOV3 cells (an ovarian cancer cell line) were seeded into separate 35 mm culture dishes containing a folate-free growth medium (RPMI+10% FBS). The next day, the medium was replaced with a folate-free medium (no FBS). In one culture dish, the medium was supplemented with 25 micromolar of compound 24; and, in another culture dish, the medium was supplemented with 50 micromolar of comparative compound A. After incubation, the cells were washed with HBSS (Hank's balanced salt solution) to remove unbound compound. The cells were then imaged with a 20× immersion objective on a standard upright fluorescent microscope. […] FIG. 1 illustrates a picture showing the fluorescence generated. Note that only the cancer cells evidenced fluorescence and that the solution remained non-fluorescent. […] This evidences that that composition was not suitable for use in the methods described herein.

Nc1nc2ncc(CNc3ccc(C(=O)NC(CCC(=O)NCCCCCNC(=O)c4cccc(-c5c6ccc(=O)cc-6oc6cc(O)ccc56)c4C(=O)O)C(=O)O)cc3)nc2c(=O)[nH]1 (stereo not shown) [comparative compound A]
fluorescent signal of the cells: burst of fluorescence but immediately the fluorescence was bleached
